Values of other authors in publication PMC9921896 (Molecules, 2023).

Columns and labels:
estrogenicity = settings: cited from earlier work
[1] = cited from earlier work
[2] = cited from earlier work; remark: listed apart in the source

CC(C)(c1ccc(O)cc1)c1ccc(O[C@@H]2O[C@H](C(=O)O)[C@@H](O)[C@H](O)[C@H]2O)cc1 [BPA-based Glucuronide metabolite, reference compound]
estrogenicity (estrogenicity; BPA glucuronide): non-estrogenic

C=C(CC(C)(C)c1ccc(O)cc1)c1ccc(O)cc1 [MBP, 4-methyl-2,4-bis(p-hydroxyphenyl) pent-1-ene, reference compound]
estrogenicity relative to BPA (estrogenicity; metabolite formed with rat liver S9 fraction): several-thousand-fold

CC(C)(c1ccc(O)cc1)c1ccc(O)cc1 [BPA, Bisphenol A]
highest dose level with no negative impact on the health ([1]; CLARITY-BPA core study): 25,000 μg kg bw^−1 day^−1 | lowest-observed-adverse-effect level (LOAEL) ([1]; suggested from low-dose effects): 2.5 μg (kg bw)^−1 day^−1 | new TDI (draft opinion) ([2]; EFSA draft opinion): 0.04 ng (kg bw)^−1 day^−1 | t-TDI ([2]; set by EFSA in 2015): 4 μg (kg bw)^−1 day^−1
